# Measurements: patent US20260083843A1, “IMMUNE CELLS TARGETING EPCAM AND MEDICAL USE THEREOF” (SUZHOU IMMUNOFOCO BIOTECHNOLOGY CO., LTD, priority 2022, published 2026)
# Tested on: MKN-45-luc
# Assay: Abdominal cavity metastasis model of gastric cancer
# Assay type: in vivo, NCG mice
# Conditions: single dose of 1.5 mg/kg i.p., Day 0; FIG. 3
# Procedure: To study whether EpCAM-CAR-T (the amino acid sequence of the chimeric antigen receptor of EpCAM-CAR-T is set forth in SEQ ID NO: 16) can clear abdominal metastatic tumors of gastric cancer and whether the chemotherapeutic drug docetaxel can enhance the efficacy of CAR-T, we constructed an abdominal cavity metastasis model of gastric cancer based on a gastric cancer cell line MKN-45-luc. Modeling: human gastric cancer cells MKN-45-luc were cultured in an RPMI-1640 culture medium with 10% FBS in an incubator at 37° C. with 5% CO2. Before continuous cell culturing for ten generations, the cells were inoculated into the abdominal cavity of mice, about 1.5×10^6 MKN-45-luc cells were resuspended in PBS, and inoculated into NCG mice by intraperitoneal injection in a volume of […]. Grouping and administration: 7 days after the inoculation, the growth of tumor cells in the abdominal cavity was detected using a small animal in vivo imaging fluorometer. The mice were randomly grouped according to the body weight and tumor size (fluorescence intensity), with 5 animals in each group, for a total of 6 groups. The day of grouping was defined as day 0.
structure (smiles),measurement,value
CC(=O)O[C@@]12CO[C@@H]1C[C@H](O)[C@@]1(C)C(=O)[C@H](O)C3=C(C)[C@@H](OC(=O)[C@H](O)[C@@H](NC(=O)OC(C)(C)C)c4ccccc4)C[C@@](O)([C@@H](OC(=O)c4ccccc4)[C@H]21)C3(C)C [docetaxel],efficacy,did not produce significant efficacy
